Experimental data from patent US7741464B2, “Compositions and methods of using CRMP-1 and its fragments for treating cancer” (Advpharma Inc., priority 2007, dated 2010).
Where two headings read alike, the source gives them in different places.

Key:
[1] = system: DU145 stable transfectants; experiment: Chemosensitivity (MTT cytotoxicity) of stable transfectants; format: cell-based; conditions: Homo sapiens, read-out: IC50 of chemical agent
From the text: (§1) Three human cancer cell lines, including lung cancer cell line H520 and two human prostate cancer cell lines (PC-3 and DU145) were applied for selection of stable transfectants. Four expression plasmids, including pNCRMP1, pNCN1, pNCN3, and pNCN4, and the pCI-neo vector (as control plasmid) were used for transfection, respectively. The general cultivation condition and transfection procedures were the same as described in Example 3. The transfected cells were further cultivated under the same conditions as their parental cell lines and selected with 0.6-1 mg antibiotic G418 per ml (Kao et al., Oncogene 16: 546-554 (1998); Xiaolin et al, Cancer Research 65: 9762-9770 (2005)).
(§2) Three agents, including caffeic acid phenethyl ester (CAPE; Sigma, US), Adriamycin™ (doxorubicin) (Pharmacia & Upjohn S.P.A. Milan, Italy), and paclitaxel (Taxol; Bristol-Myers Squibb Co., Wallingford, Conn.), were dissolved in DMSO (dimethyl sulfoxide; Sigma) for preparation of stock solution, respectively. A serial dilution was prepared with DPBS buffer for chemosensitivity tests. The human lung squamous carcinoma stable transfectants H520 were treated with both CAPE and Adriamycin™ (doxorubicin) for four different concentrations, e.g. 0.05, 0.01, 0.002, and 0.0004 mM, while the administering of paclitaxel was performed at different concentrations, e.g. 1000, 200, 40, and 8 nM. Both types of prostate stable transfectants were only treated with paclitaxel for eight concentrations ranging from 0.1 mM to 1.28 nM with 1/5 dilution each step.
(§3) MTT (3-(4,5-dimethylthiazol-2-yl)-2,5-diphenyltetrazolium bromide; Sigma, Inc.) assay (Monks et al., J. Natl. Cancer Inst. 83:757-766 (1991); Paull et al, J. Natl. Cancer Inst. 81:1088-1092 (1989)) was applied for studying the cytotoxic effect of indicated agent. The absorbance was measured both at 545 nm and at 690 nm (served as reference) using the 96-well spectrophotometer reader (Emax, Molecular Device Inc., California, US) (Chen et al., Yi Xue Za Zhi (Taipei) 46:7-16 (1990)). The relative growth inhibition was calculated as follows: Relative growth inhibition=100%×(1−(OD545nm (Treated cells)−OD690nm(Treated cells))÷(OD545nm(untreated cells)−OD690nm(untreated cells)))
(§4) The 50% inhibition concentration (IC50) was determined after graphical plotting of spectrophotometric measurements and interpolation by EXCEL software.

[2] = system: H520 stable transfectants; experiment: as above; format: cell-based; conditions: Homo sapiens, read-out: IC50 of chemical agent
From the text: as §1, §2, §3, §4

[3] = system: PZ-HPV-7 cells; experiment: Chemosensitivity (MTT cytotoxicity) assay; format: cell-based; conditions: Homo sapiens; PZ-HPV-7, MTT; read-out: IC50 of chemical agent
Protocol: Three agents, including caffeic acid phenethyl ester (CAPE; Sigma, US), Adriamycin™ (doxorubicin) (Pharmacia & Upjohn S.P.A. Milan, Italy), and paclitaxel (Taxol; Bristol-Myers Squibb Co., Wallingford, Conn.), were dissolved in DMSO (dimethyl sulfoxide; Sigma) for preparation of stock solution, respectively. A serial dilution was prepared with DPBS buffer for chemosensitivity tests. […] Both types of prostate stable transfectants were only treated with paclitaxel for eight concentrations ranging from 0.1 mM to 1.28 nM with 1/5 dilution each step.

[4] = system: MCF-7 transient transfectants; experiment: Chemosensitivity of transient transfectants (cell counting); format: cell-based; conditions: Homo sapiens, MCF7, 72 h, read-out: IC50 of chemical agent
Protocol: (§5) Six human cancer cell lines, including human colon cancer cell lines Caco-2, CC-M1, DLD-1; human prostate cancer cell lines DU145, PC-3; and human breast cancer cell line MCF-7, were tested in an experiment on improvement of chemosensitivity. Two expression plasmids, pNCRMP1 and pNCN3, and the pCI-neo vector (control plasmid), were used for transfection, respectively. The general cultivation conditions and transfection procedures were the same as described in Example 3.
(§6) Treatment of transient transfected cell lines using chemical agent was immediately performed as follows, and quantification of viable cells was performed by counting using hemocytometer after 3-days incubation at 37° C.: • (1) Three types of transient transfected human colorectal cancer cells were treated with 5-fluorouracil; • (2) The transient transfected human prostate cancer cell line DU145 was treated with Adriamycin™ (doxorubicin), cyclophosphamide and etoposide; • (3) The transient transfected human prostate cancer cell line PC3 was treated with cyclophosphamide, etoposide, and paclitaxel; and, • (4) The transient transfected human breast cancer cell line MCF-7 was treated with Adriamycin™ (doxorubicin) and paclitaxel.

[5] = system: PC-3 transient transfectants; experiment: as above; format: cell-based; conditions: Homo sapiens, 72 h, read-out: IC50 of chemical agent
Protocol: as §5, §6

[6] = system: CC-M1 cells; experiment: Cytotoxic effect of recombinant e-rCN3 protein; format: cell-based, human; conditions: 5 μM, three treatment cycles
Protocol: (§7) The growth inhibition effect of recombinant e-rCN3 protein was studied with five human cell lines, including the human colon cancer cell line CC-M1, the human breast cancer cell line MCF-7, two human prostate cancer cell lines PC-3 and DU145, and the human prostate epithelium cell line PZ-HPV-7. […] The cytotoxicity assay were performed using MTT method as described by Monks et al. (J. National Cancer Institute 83:757-767 (1991)) or using cell counting-based Hemocytometer method (R. Ian Freshney, WILEY-LISS: 186, 309-312 (2000)) as described in Example 3 and Example 9. Five micromolar (μM) e-rCN3 was applied twice on three prostate cell lines for 6 hours with an interval of 16 hours, while the human colon cancer cell and breast cancer cells were treated with three cycles.

[7] = system: MCF-7 cells; experiment: Cytotoxic effect of recombinant e-rCN3 protein; format: cell-based, human; conditions: 5 μM, three treatment cycles
Protocol: as §7

[8] = system: PC-3 cells; experiment: Cytotoxic effect of recombinant e-rCN3 protein; format: cell-based, human; conditions: 5 μM applied twice for 6 hours with an interval of 16 hours
Protocol: as §7

[9] = system: PZ-HPV-7 cells; experiment: Cytotoxic effect of recombinant e-rCN3 protein; format: cell-based, human; conditions: 5 μM applied twice for 6 hours with an interval of 16 hours
Protocol: as §7

Compound: CC(=O)O[C@H]1C(=O)[C@@]2(C)[C@H]([C@H](OC(=O)c3ccccc3)[C@]3(O)C[C@H](OC(=O)[C@H](O)[C@@H](NC(=O)c4ccccc4)c4ccccc4)C(C)=C1C3(C)C)[C@]1(OC(C)=O)CO[C@@H]1C[C@@H]2O [paclitaxel]
- IC50 ([1]; DU-145, stable transfectant DU145/pCI-neo/7 (control plasmid), MTT): 8000 nM
- IC50 ([1]; DU-145, stable transfectant DU145/pNCRMP1/2, MTT): 20 nM
- IC50 ([2]; NCI-H520, stable transfectant H520/pCI-neo/1 (control plasmid), MTT): 31 nM
- IC50 ([2]; NCI-H520, stable transfectant H520/pNCN1/1, MTT): 12 nM
- IC50 ([2]; NCI-H520, stable transfectant H520/pNCN3/1, MTT): < 8 nM
- IC50 ([2]; NCI-H520, stable transfectant H520/pNCN4/1, MTT): < 8 nM
- IC50 ([2]; NCI-H520, stable transfectant H520/pNCRMP1/1, MTT): 12 nM
- IC50 [3]: 6530 nM
- IC50 ([4]; transient transfectant MCF-7/pCIneo (control plasmid), 3-days incubation): < 1 nM
- IC50 ([4]; transient transfectant MCF-7/pNCN3, 3-days incubation): 44 nM
- IC50 ([4]; transient transfectant MCF-7/pNCRMP1, 3-days incubation): < 1 nM
- IC50 ([5]; transient transfectant PC-3/pCIneo (control plasmid), 3-days incubation): 87 nM
- IC50 ([5]; transient transfectant PC-3/pNCN3, 3-days incubation): 10 nM
- IC50 ([5]; transient transfectant PC-3/pNCRMP1, 3-days incubation): 69 nM

Compound: e-rCN3: recombinant CN3 domain of hCRMP-1 (amino acids 208 to 480) expressed in E. coli from pE22bCN3
- growth inhibition effect [6]: over 60%
- growth inhibition effect [7]: over 60%
- growth inhibition effect [8]: approximately 40%
- growth inhibition effect [9]: no growth inhibition effect
